# “And” between values parts separate entries of the source, which are not always exact repeats. Equal entries are not always repeated. Where two headings read alike, the source gives them in different places.
# How the values were obtained:
# R5 reporter = experiment: R5 luciferase reporter stably transfected in A549 cells; format: cell-based, human; conditions: for EC50: Homo sapiens
# Experimental: (§2) Data were assumed to be normally distributed and, unless otherwise indicated, are presented as means ± SD with scatterplots showing individual values. With the exception of pEC50 values, numerical values in tables and text are provided to one decimal place, or where appropriate 2 significant figures of accuracy. […] Multiple comparisons were made using one-way ANOVA with Tukey’s or Dunnett’s post hoc tests, as appropriate. Comparisons between 2 groups were performed by 2-tailed, paired Student’s t test. The number of independent experiments (N) is indicated in each graph and, being exploratory, sample sizes were not prespecified. […] GraphPad Prism software (version 11; Dotmatics) and/or the R package “ggplot2” was used for graph plotting and statistical analyses. Heat maps were generated using the R package “pheatmap.” Concentration-response relationships were fitted using the 4-parameter model that assumed symmetric variance or using the Gaddum-Schild model of competitive antagonism, as described previously.[43] Variance in pEC50, EMax, or pA2 are provided by Prism as mean ±SE, whereas all curves are plotted as means ±SD (but without scatterplots).
# R2 reporter = experiment: R2 luciferase reporter (BIRC3/BIRC2 locus) stably transfected in A549 cells; format: cell-based, human; conditions: for EC50: A549, 6 h; for pA2 (Schild analysis): Org34517 1 μM
# Experimental: Data were assumed to be normally distributed and, unless otherwise indicated, are presented as means ± SD with scatterplots showing individual values. […] Multiple comparisons were made using one-way ANOVA with Tukey’s or Dunnett’s post hoc tests, as appropriate. Comparisons between 2 groups were performed by 2-tailed, paired Student’s t test. The number of independent experiments (N) is indicated in each graph and, being exploratory, sample sizes were not prespecified. […] Heat maps were generated using the R package “pheatmap.” Concentration-response relationships were fitted using the 4-parameter model that assumed symmetric variance or using the Gaddum-Schild model of competitive antagonism, as described previously.[43] Variance in pEC50, EMax, or pA2 are provided by Prism as mean ±SE, whereas all curves are plotted as means ±SD (but without scatterplots). Because all analyses were exploratory and were not designed to test prespecified statistical null hypotheses, stated P values should be viewed as being descriptive rather than as hypothesis testing.
# R8 reporter [1] = experiment: R8 luciferase reporter stably transfected in A549 cells; conditions: for EC50 / inhibition at 30 µM: Homo sapiens; for EC50: A549, read-out: pEC50, R8 reporter (converted), Schild experiments (Fig. 7D); for inhibition at 30 µM: A549, read-out: inhibition of IL-1β-plus-dexamethasone-induced R8 reporter activity
# Experimental: as §2
# R4 reporter = experiment: R4 luciferase reporter stably transfected in A549 cells; format: cell-based, human; conditions: for EC50: Homo sapiens, A549, read-out: EC50, inhibition of IL-1β-induced R4 reporter activity
# Experimental: as §2
# R7 reporter = experiment: R7 luciferase reporter stably transfected in A549 cells; format: cell-based, human
# Experimental: as §2
# [2] = test system: RELA recruitment to CXCL8; experiment: ChIP-qPCR of RELA recruitment to CXCL8 in A549 cells; format: cell-based, human; conditions: IL-1β 1 ng/mL, 1 hour
# Experimental: (§3) After cell treatments, formaldehyde (PI28906, Thermo Fisher Scientific) was added to a final concentration of 1% for 10 minutes. […] Following cytoplasmic and then nuclear lysis, lysates were sonicated with 30 high-power bursts in a 30 seconds on-off cycle at 4 °C using a Bioruptor (Diagenode). Antibodies: GR, GR-356,[36] RELA (NF-κB p65, D14E12, #8242, Cell Signaling Technologies); RNA polymerase 2 (RNAP2) (Rpb1 NTD D8L4Y, #14958, Cell Signaling Technologies) used for ChIP were preincubated with protein G magnetic Dynabeads (10004D, Thermo Fisher Scientific) overnight at 4 °C and beads were washed as previously described. Nuclear lysates were then incubated with the antibody-coated beads overnight prior to extensive washing. Following reversal of crosslinks, DNA was purified with a ChIP DNA Clean & Concentrator kit (D5205, Zymo Research). Fast SYBR Green Master Mix (Thermo Fisher Scientific) was used in standard quantitative polymerase chain reaction (qPCR) reactions to detect DNA regions of interest. […] Relative occupancy at each region was calculated as ΔΔ threshold cycle (CT) after normalization to the geometric mean of the threshold cycle values for 3 negative control regions (Gene symbols: OLIG3, MYOD1, and MYOG).
# R0 reporter = experiment: R0 luciferase reporter stably transfected in A549 cells; format: cell-based, human; conditions: IL-1β 1 ng/mL, 6 h (Fig. 3B,C)
# Experimental: as §2
# R3 reporter = experiment: R3 luciferase reporter stably transfected in A549 cells; format: cell-based, human; conditions: IL-1β 1 ng/mL, 6 h (Fig. 3B,C)
# Experimental: Data were assumed to be normally distributed and, unless otherwise indicated, are presented as means ± SD with scatterplots showing individual values. […] Multiple comparisons were made using one-way ANOVA with Tukey’s or Dunnett’s post hoc tests, as appropriate. Comparisons between 2 groups were performed by 2-tailed, paired Student’s t test. The number of independent experiments (N) is indicated in each graph and, being exploratory, sample sizes were not prespecified. […] GraphPad Prism software (version 11; Dotmatics) and/or the R package “ggplot2” was used for graph plotting and statistical analyses. Heat maps were generated using the R package “pheatmap.” Concentration-response relationships were fitted using the 4-parameter model that assumed symmetric variance or using the Gaddum-Schild model of competitive antagonism, as described previously.[43] Variance in pEC50, EMax, or pA2 are provided by Prism as mean ±SE, whereas all curves are plotted as means ±SD (but without scatterplots).
# BIRC3 mRNA = experiment: qPCR of BIRC3 mRNA in A549 cells; format: cell-based, human; conditions: for EC50: Homo sapiens, A549, 2 h, IL-1β-induced BIRC3 mRNA, 2 h; for repression of IL-1β-induced BIRC3 mRNA: at 30 μM, IL-1β 2 h
# Experimental: (§1) Following treatments, total RNA was extracted and 500 ng used for cDNA synthesis according to standard procedures.[34] After 1:5 dilution, cDNA (2.5 μL) was analyzed by qPCR (StepOnePlus, Applied […] or QuantStudio3, Thermo Fisher Scientific) with Fast SYBR Green Master Mix (4385618, Thermo Fisher Scientific). Amplification conditions and primers specific for BIRC3, BIRC2, and glyceraldehyde-3-phosphate dehydrogenase mRNAs were as described.[9] In each case, relative cDNA concentrations were obtained from standard curves generated by serial dilution of a stimulated cDNA sample that was analyzed in parallel with the experimental samples. Primer specificity was assessed by melt curve analysis where a single peak in the change of fluorescence with temperature was taken to indicate specificity.
# R8 reporter [3] = test system: R8 reporter
# Experimental: as §2
# NF-κB reporter = test system: NF-κB reporter; parameters: method as in PMID 17322026, PMID 37863662, PMID 38941070; conditions: read-out: EC50, inhibition of IL-1β-induced NF-κB reporter activity; cited from earlier work
# BIRC2 mRNA = experiment: qPCR of BIRC2 mRNA in A549 cells; format: cell-based, human; conditions: for effect on IL-1β-induced BIRC2 mRNA expression: concentration series, IL-1β 2 h (Fig. 6C)
# Experimental: as §1
# GR recruitment to FKBP5 = experiment: ChIP-qPCR of GR recruitment to FKBP5 in A549 cells; format: cell-based, human; conditions: budesonide 300 nM, 1 hour
# Experimental: as §3
# [4] = A549, 6 h, R5 reporter, glucocorticoid + IL-1β (1 ng/mL), 6 h
# [5] = A549, 6 h, R5 reporter, glucocorticoid, naïve, 6 h
# [6] = R5 reporter, glucocorticoid + IL-1β (1 ng/mL), % of 1 μM dexamethasone, 6 h
# [7] = R5 reporter, glucocorticoid, naïve, expressed as % of 1 μM dexamethasone, 6 h
# [8] = Homo sapiens, R2 reporter, glucocorticoid + IL-1β (1 ng/mL), 6 h
# [9] = Homo sapiens, R2 reporter, glucocorticoid, naïve, 6 h
# [10] = R5 reporter, IL-1β, naïve, n.r. = no significant response
# [11] = R8 reporter, IL-1β, naïve (Table 1), n.r. = no significant response
# [12] = R8 reporter, IL-1β, naïve, budesonide series (Supplemental Table 1), n.r. = no significant response
compound,measurement,setting,value
"C[C@@H]1C[C@H]2[C@@H]3CCC4=CC(=O)C=C[C@]4(C)[C@@]3(F)[C@@H](O)C[C@]2(C)[C@@]1(O)C(=O)CO [Dexamethasone, dexamethasone]",EC50,R5 reporter; [4],10 nM
same,EC50,R5 reporter; [5],11.5 nM
same,EC50,"R5 reporter; A549, R5 reporter, dexamethasone, Schild experiments (Fig. 7C), read-out: pEC50 (converted)",11.7 nM
same,EMax (% of 1 μM dexamethasone ± SE),R5 reporter; [6],16.3% ± 1.8
same,EMax (% of 1 μM dexamethasone ± SE),R5 reporter; [7],101% ± 2
same,EC50,R2 reporter; [8],10.2 nM
same,EC50,R2 reporter; [9],8.51 nM
same,EC50,R8 reporter [1]; dexamethasone alone,10.7 nM
same,EC50,R8 reporter [1]; dexamethasone in the presence of IL-1β,8.32 nM
CC#C[C@]1(O)CCC2C3CCC4=CC(=O)CCC4=C3[C@@H](c3ccc4c(c3)OCO4)C[C@@]21C (some centres unmarked) [Org34517],"dexamethasone-induced luciferase activity in the presence of Org34517, fold","R5 reporter; R5 reporter, Org34517 1 μM, dexamethasone 1 μM",1.7 fold
same,pA2 (Schild analysis),"R5 reporter; R5 reporter, antagonism of dexamethasone, Org34517 1 μM",8.33 ±0.14
same,pA2 (Schild analysis),"R2 reporter; R2 reporter, antagonism of dexamethasone + IL-1β",7.99
same,pA2 (Schild analysis),"R2 reporter; R2 reporter, antagonism of dexamethasone, consistent with antagonism at GR",7.71
same,effect on induced R4 reporter activity,"R4 reporter; Org34517 1 μM, P ≤ .05 and .01",reduced
same,"IL-1β-plus-dexamethasone-induced reporter activity in the presence of Org34517, fold","R8 reporter [1]; R8 reporter, Org34517 1 μM",6.3 fold
same,"dexamethasone-induced reporter activity in the presence of Org34517, fold","R8 reporter [1]; R8 reporter, Org34517 1 μM, dexamethasone 1 μM",1.4 fold
same,pA2 (Schild analysis),"R8 reporter [1]; R8 reporter, antagonism of dexamethasone + IL-1β, Org34517 1 μM",8.14 ± 0.11
same,pA2 (Schild analysis),"R8 reporter [1]; R8 reporter, antagonism of dexamethasone, Org34517 1 μM",8.14 ± 0.11
"IL-1β: Recombinant human IL-1β (R&D Systems), proinflammatory cytokine","reporter inducibility, fold",R7 reporter; IL-1β 1 ng/mL (Fig. 6A),2.3 fold
same,"reporter inducibility, fold","R7 reporter; IL-1β 1 ng/mL, 6 h (Fig. 5C)",2.0 ± 0.9 fold
same,"reporter activity, fold of no stimulation ± SD","R7 reporter; dexamethasone 1 μM, IL-1β 1 ng/mL or both, 6 h (Fig. 3C)",2.0 ± 0.7 fold and 2.0 fold
same,"recruitment of RELA to CXCL8, fold",[2],48 ± 11 fold
same,EMax (% of 1 μM dexamethasone ± SE),"R5 reporter; R5 reporter, IL-1β + dexamethasone (1 μM): inhibition of dexamethasone-induced activity, % of 1 μM dexamethasone",15.1% ± 3.1
same,EMax,R5 reporter; [10],n.r.
same,pEC50 (−log[g/ mL] ± SE),R5 reporter; [10],n.r.
same,EMax (Fold ± SE),"R2 reporter; R2 reporter, IL-1β + dexamethasone (1 μM), 6 h",3.8 ± 0.2 Fold
same,"reporter activity, fold","R2 reporter; R2 reporter, IL-1β at 1 ng/mL in the presence of dexamethasone (1 μM) (Fig. 3F)",4.0 ± 1.1 fold
same,EMax (Fold ± SE),"R2 reporter; R2 reporter, IL-1β concentration-response, naïve, n.r. = no significant response",n.r.
same,pEC50 (−log[g/ mL] ± SE),"R2 reporter; R2 reporter, IL-1β, naïve, n.r. = no significant response",n.r.
same,"reporter activity, fold of no stimulation ± SD",R0 reporter,1.6 ± 0.5 fold
same,EMax (Fold ± SE),"R4 reporter; R4 reporter, IL-1β + Budesonide (300 nM)",4.8 Fold
same,EMax (Fold ± SE),"R4 reporter; R4 reporter, IL-1β + dexamethasone (1 μM), 6 h",4.3 ± 0.1 Fold
same,EMax (Fold ± SE),"R4 reporter; R4 reporter, IL-1β, naïve, 6 h (Table 1)",3.5 ± 0.1 Fold
same,EMax (Fold ± SE),"R4 reporter; R4 reporter, IL-1β, naïve, budesonide series (Supplemental Table 1)",3.6 Fold
same,"reporter activity, fold of no stimulation ± SD","R4 reporter; R4 reporter, dexamethasone 1 μM, IL-1β 1 ng/mL or both, 6 h (Fig. 3C)",3.3 ± 1.9 fold
same,"reporter activity, fold of not stimulated","R4 reporter; R4 reporter, naïve cells, dexamethasone 1 μM, IL-1β 1 ng/mL or both, 6 h (Fig. 5C)",2.8 ± 0.7 fold
same,EMax (Fold ± SE),"R8 reporter [1]; R8 reporter, IL-1β + Budesonide (300 nM)",9.3 Fold
same,EMax (Fold ± SE),"R8 reporter [1]; R8 reporter, IL-1β + dexamethasone (1 μM), 6 h",16.5 ± 1.0 Fold
same,"reporter activity, fold","R8 reporter [1]; R8 reporter, IL-1β alone (Fig. 3I)",1.2 ± 0.3 fold
same,EMax (Fold ± SE),R8 reporter [1]; [11],n.r.
same,pEC50 (−log[g/ mL] ± SE),R8 reporter [1]; [11],n.r.
same,EMax (Fold ± SE),R8 reporter [1]; [12],n.r.
same,pEC50 (-log[g/ml] ±SE),R8 reporter [1]; [12],n.r.
same,"reporter activity, fold of no stimulation ± SD","R8 reporter [1]; R8 reporter, dexamethasone 1 μM, IL-1β 1 ng/mL or both, 6 h (Fig. 3C)",1.3 ± 0.7 fold
same,"reporter activity, fold of no stimulation ± SD",R3 reporter,1.4 ± 0.3 fold
"COc1c(Cl)cc2c([nH]c3cnccc32)c1NC(=O)c1cccnc1C.Cl.Cl [ML120B, N-(6-Chloro-7-methoxy-9H-pyrido[3,4-b]indol-8-yl)-2-methyl-3-pyridinecarboxamide dihydrochloride]",reduction in reporter activity in the presence of IL-1β,R2 reporter,27.8%
same,reduction in reporter activity induced by dexamethasone,R2 reporter,34.0%
same,EC50,R4 reporter,≥ 30000 nM
same,inhibition at 30 µM,R8 reporter [1],> 75%
same,EC50,BIRC3 mRNA,2950 nM
same,repression of IL-1β-induced BIRC3 mRNA,BIRC3 mRNA,~54%
same,EC50,R8 reporter [3],10000 nM
same,EC50,NF-κB reporter,8200 nM
same,EC50,"BIRC2 mRNA; Homo sapiens, A549, 2 h",10500 nM
same,effect on IL-1β-induced BIRC2 mRNA expression,BIRC2 mRNA,partial repressive effect
"O=C(Nc1cc(Cl)cc2c1[nH]c1cnccc12)c1cccnc1 [PS-1145, N-(6-chloro-9h-pyrido[3,4-b]indol-8-yl)-3-pyridinecarboxamide]",inhibition of IL-1β-plus-dexamethasone-induced reporter activity,"R2 reporter; R2 reporter, inhibitor 30 μM (Fig. 6A)",unaffected
same,reduction in reporter activity induced by dexamethasone,"R2 reporter; R2 reporter, inhibitor 30 μM, dexamethasone 1 μM (Fig. 6A)",unaffected
same,reduction of dexamethasone-induced R4 reporter activity,"R4 reporter; inhibitor 30 μM, dexamethasone 1 μM",24.5%
same,inhibition at 30 µM,R8 reporter [1],> 60%
same,EC50,BIRC3 mRNA,2750 nM
same,repression of IL-1β-induced BIRC3 mRNA,BIRC3 mRNA,~54%
same,EC50,NF-κB reporter,1000 to 2000 nM
same,effect on IL-1β-induced BIRC2 mRNA expression,BIRC2 mRNA,no effect on IL-1β-induced expression until a concentration of 100 μM
"NC(=O)Nc1sc(-c2ccc(F)cc2)cc1C(N)=O [TPCA-1, 2-[(aminocarbonyl)amino]-5-(4-fluorophenyl)-3-thiophenecarboxamide]",inhibition at 30 µM,"R2 reporter; Homo sapiens, A549, read-out: inhibition of IL-1β-plus-dexamethasone-induced reporter activity",56%
same,EC50,R4 reporter,2600 nM
same,inhibition of IL-1β-plus-dexamethasone-induced R8 reporter activity,R8 reporter [1]; inhibitor 30 μM,complete inhibition
same,repression of IL-1β-induced BIRC3 mRNA,BIRC3 mRNA,near complete inhibition
same,EC50,NF-κB reporter,2000 nM
same,effect on IL-1β-induced BIRC2 mRNA expression,BIRC2 mRNA,"below 10 μM, TPCA-1 was without effect"
"CCCC1O[C@@H]2C[C@H]3[C@@H]4CCC5=CC(=O)C=C[C@]5(C)[C@H]4[C@@H](O)C[C@]3(C)[C@]2(C(=O)CO)O1 (some centres unmarked) [Budesonide, budesonide]",EC50,R5 reporter; [4],12.3 nM
same,EC50,R5 reporter; [5],6.61 nM
same,EMax (% of 1 μM dexamethasone ± SE),R5 reporter; [6],9.3%
same,EMax (% of 1 μM dexamethasone ± SE),R5 reporter; [7],92.2%
same,EC50,R2 reporter; [8],5.89 nM
same,EC50,R2 reporter; [9],3.47 nM
same,EMax (Fold ± SE),"R2 reporter; R2 reporter, glucocorticoid + IL-1β (1 ng/mL), 6 h",3.3 Fold
same,EMax (Fold ± SE),"R2 reporter; R2 reporter, glucocorticoid concentration-response, naïve, 6 h",2.4 Fold
same,"recruitment of GR to FKBP5, fold",GR recruitment to FKBP5,240 ± 150 fold
same,EMax (Fold ± SE),"R8 reporter [1]; R8 reporter, glucocorticoid + IL-1β (1 ng/mL), 6 h",16.2 Fold
same,EMax (Fold ± SE),"R8 reporter [1]; R8 reporter, glucocorticoid, naïve, 6 h",2.2 Fold

# — publication PMC12799407, “Differential RELA and GR recruitment to the BIRC3/BIRC2 locus: Molecular insight as to combinatorial regulation by proinflammatory cytokines and glucocorticoid” (Molecular Pharmacology, 2025)
